One assay addresses S1P1 (Homo sapiens, UniProt P21453). Put plainly: [35S]-GTPγS binding assay, S1P1. The format is biochemical. The settings on record: for Emax: control S1P, read-out: S1P1 % Efficacy. How it is done:
(§1) Cell Membrane Preparations
(§2) CHO cells expressing recombinant S1P receptors were cultured 500 cm^2 culture trays and once confluent, rinsed and detached with cell-lifting buffer (10 mM HEPES, 154 mM NaCl, 6.85 mM EDTA, pH 7.4). Cells were then pelleted by centrifugation, resuspended, and homogenized in membrane preparation buffer (10 mM HEPES and 10 mM EDTA, pH 7.4) using a Polytron PT 1200E homogenizer (Kinematica, Luzern, Switzerland). Cellular proteins were pelleted by centrifugation at 48,000×g at 4° C. for 30 minutes. The resulting supernatant was discarded, and the pellet was re-suspended again in membrane preparation buffer, homogenized for a second time and then centrifuged again as described above. The final cellular protein pellet was suspended in ice cold resuspension buffer (10 mM HEPES and 0.1 mM EDTA, pH 7.4), divided into aliquots, and stored at −80° C. until use.
(§3) Binding assays for [^35S]-GTPγS were performed in 96-well non-binding surface plates with a final volume of 200 μL. The test compounds were serial diluted in DMSO and added to assay plates using a Tecan D300E digital printer with a total volume of 0.4 μL. The control sphingosine-1-phosphate (S1P) was prepared separately by preparing a 400 μM stock solution from a 100 nmol pellet of S1P in 10 mM Na2CO3 with 2% β-cyclodextrin. The serial dilution of S1P was done using complete assay buffer (20 mM HEPES, 10 mM MgCl2, 100 mM NaCl, 1 mM EDTA, 0.1% fatty acid free bovine serum albumin [BSA], and 30 μg/mL saponin, pH7.4) and transferred to wells already containing 0.4 μL DMSO. All the wells were then loaded to a total volume of 40 μL of complete assay buffer, except the non-specific binding (NSB) wells. For NSB wells, 40 µL/well of 50 μM GTPγS (Sigma Aldrich, cat #G8634, St. Louis, MO) was added to wells containing 0.4 μL of DMSO. The assay was started by the addition of 120 μL/well of CHO—S1P receptor membrane solution containing 40 μg/mL of membrane protein, 16.67 μM guanosine diphosphate (GDP; Sigma Aldrich, cat #G7127, St. Louis, MO), and 2.5 mg/mL of WGA PVT SPA beads in complete buffer. Assay plates were then sealed and incubated at room temperature with gentle agitation for 30 minutes. Next, 40 μL/well of 1 nM of [^35S]-GTPγS (PerkinElmer, cat #NEG030X250UC, Waltham, MA) in basic assay buffer (20 mM HEPES, 10 mM MgCl2, 100 mM NaCl, and 1 mM EDTA, pH7.4) was added to the assay plates to yield a final concentration of […] and the plates were further incubated for 40 minutes at room temperature with gentle agitation. The assay was terminated by centrifugation of the plates at 1000 rpm for 3 minutes using an Eppendorf 5810R centrifuge (Eppendorf, Hamburg, Germany) and G protein bound radioactivity was quantitated using a MicroBeta2 microplate scintillation counter (PerkinElmer, Waltham, MA).

For another assay, the target named is S1P5 (Homo sapiens, UniProt Q9H228). Put plainly: [35S]-GTPγS binding assay, S1P5. The class given is biochemical. The settings on record: membranes of CHO cells expressing recombinant S1P receptors; for Emax: control S1P, read-out: S1P5 % Efficacy. How it is done: as §1, §2, §3
The mark [1] stands for this setting: membranes of CHO cells expressing recombinant S1P receptors, [35S]-GTPγS binding.
Setting [2] is: membranes of CHO cells expressing recombinant S1P receptors, [35S]-GTPγS binding, read-out: S1P1 EC50.

Where two headings read alike, the source gives them in different places.

Chain of S1P1 (P21453 whole entry, species assumed): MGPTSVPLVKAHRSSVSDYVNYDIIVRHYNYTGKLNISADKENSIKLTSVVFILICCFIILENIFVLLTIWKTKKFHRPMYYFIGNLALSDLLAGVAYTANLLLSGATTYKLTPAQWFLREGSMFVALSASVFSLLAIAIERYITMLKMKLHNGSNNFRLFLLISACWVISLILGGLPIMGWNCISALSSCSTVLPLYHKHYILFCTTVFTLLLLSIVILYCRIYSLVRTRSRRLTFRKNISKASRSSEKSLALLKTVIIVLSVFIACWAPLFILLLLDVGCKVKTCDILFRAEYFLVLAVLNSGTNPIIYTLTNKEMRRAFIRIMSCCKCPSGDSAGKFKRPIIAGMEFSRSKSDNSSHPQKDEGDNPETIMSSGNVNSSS
Chain of S1P5 (Q9H228 whole entry, species assumed): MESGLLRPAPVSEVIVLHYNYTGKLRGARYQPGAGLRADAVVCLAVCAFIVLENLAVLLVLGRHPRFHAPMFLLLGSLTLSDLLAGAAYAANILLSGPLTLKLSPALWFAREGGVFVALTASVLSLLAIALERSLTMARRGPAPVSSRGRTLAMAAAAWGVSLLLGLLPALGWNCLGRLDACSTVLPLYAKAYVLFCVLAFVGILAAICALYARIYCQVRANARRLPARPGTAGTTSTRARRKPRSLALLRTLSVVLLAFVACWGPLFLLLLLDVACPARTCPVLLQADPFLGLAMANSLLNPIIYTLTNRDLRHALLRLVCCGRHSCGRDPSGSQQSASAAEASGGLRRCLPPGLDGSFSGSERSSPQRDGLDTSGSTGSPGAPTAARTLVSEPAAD

Take `CC(C)Oc1ccc(-c2nc(-c3cccc4c3CCC4=NOCCC(=O)O)no2)cc1C#N` (stereo in doubt) [Compound 7, (E)-3-(((4-(5-(3-cyano-4-isopropoxyphenyl)-1,2,4-oxadiazol-3-yl)-2,3-dihydro-1H-inden-1-ylidene)amino)oxy)propanoic acid]: the Emax worked out at 89% at S1P1 (setting [1]) and 29% at S1P5. Besides, the half-maximal effective concentration (EC50) was found to be 336 nM at S1P1 (setting [2]) and 30 nM on S1P5.

Turning to `CC(C)Oc1ccc(-c2nc(-c3cccc4c3CC/C4=N/OC(C)(C)C)no2)cc1C#N` [Compound 5, (Z)-5-(3-(1-(tert-butoxyimino)-2,3-dihydro-1H-inden-4-yl)-1,2,4-oxadiazol-5-yl)-2-isopropoxybenzonitrile], the Emax at S1P1 (setting [1]) came to 98%; on S1P5, 79%. The figures for the EC50 at S1P1 (setting [2]) and at S1P5 were 20 nM and 78 nM, respectively.

For `CC(C)Oc1ccc(-c2nc(-c3cccc4c3CC/C4=N/OCC(=O)O)no2)cc1C#N` [Compound 6, (Z)-2-(((4-(5-(3-cyano-4-isopropoxyphenyl)-1,2,4-oxadiazol-3-yl)-2,3-dihydro-1H-inden-1-ylidene)amino)oxy)acetic acid], the EC50 was 19 nM at S1P1 and above 2000 nM at S1P5. For the same compound, the Emax at S1P1 (setting [1]) came to 90%.

In the case of `CC(C)Oc1ccc(-c2nc(-c3cccc4c3CC/C4=N/OCCN(C)C)no2)cc1C#N` [Compound 8], the values for the Emax on S1P1 (setting [1]) and at S1P5 were 90% and 64%, respectively. For the same compound, the EC50 stood at 8 nM on S1P1 (setting [2]) and 15 nM on S1P5.

Consider `CC(C)Oc1ccc(-c2nc(-c3cccc4c3CC/C4=N/O)no2)cc1C#N` [Compound 10, (Z)-5-(3-(1-(hydroxyimino)-2,3-dihydro-1H-inden-4-yl)-1,2,4-oxadiazol-5-yl)-2-isopropoxybenzonitrile], for which the Emax at S1P1 (setting [1]) came to 97%; at S1P5, 58%. Further, the EC50 on S1P1 (setting [2]) was found to be 4 nM; at S1P5 it was 6 nM.

On to `CC(C)Oc1ccc(-c2nc(-c3cccc4c3CC/C4=N/OCCCC(=O)O)no2)cc1C#N` [Compound 11, (Z)-4-(((4-(5-(3-cyano-4-isopropoxyphenyl)-1,2,4-oxadiazol-3-yl)-2,3-dihydro-1H-inden-1-ylidene)amino)oxy)butanoic acid], for which the Emax on S1P1 (setting [1]) and at S1P5 was 85% in each case. In addition, the concentration for a half-maximal effect (EC50) worked out at 6 nM on S1P1 (setting [2]) and 80 nM at S1P5.

The values above are taken from US12364686B2, “Sphingosine 1 phosphate receptor modulators” (RECEPTOS LLC, priority 2020, dated 2025).
